Test results published in patent publication US20170318812A1, “Plant and Crop Growth Regulating/Biostimulant Formulations and Methods of Use” (Arysta Lifescience North America, LLC, priority 2014, published 2017).
“And” between values parts separate entries of the source, which are not always exact repeats. Equal values may be shown once.

Tested on: TRZAX Triticum aestivum (Soft wheat)
Assay: Ipfencarbazone biostimulant effect, early post emergence foliar application, greenhouse pots, plant height: wheat
Assay type: in vivo
Conditions: for HEIGHT, percent of untreated check (APoC) / HEIGHT, treatment mean: TRZAX BRS327
Excerpt: The original objective of this Example was to evaluate the herbicidal effect of ipfencarbazone when applied as a post emergent treatment to a range of selected crops and weeds. Unexpectedly, crop plant growth stimulation was observed. The actual species of weeds and crops are listed in the summary data tabulated below and in FIGS. 1-13. By convention each plant species has a Bayer code (5-letter name) with the scientific name for the plant referenced in FIGS. 1-13. In each Figure, each tray contains the same configuration of weeds and/or crops. In each Figure there is one replication of each treatment (six treatments in total). The top three photographs in each Figure show the Bayer Codes and bottom three photographs are aligned with the top three facilitating viewing of the same plant species. Throughout the Examples various abbreviations as conventional shorthand notation and will be appreciated by those skilled in the art. Some exemplary abbreviations include, “CV”=Co-efficient of Variation,” “LSD”=Least Significant Difference” (G/L (gram per L) AND GA/L (gram of active ingredient per L); “SC”=suspension concentrate formulation. The diluent in all treatments was water. By convention factors that are identical in all treatments (e.g. diluent and surfactant) are not listed in each treatment.
Methods: The indicated size pots (see Tables below) are filled with a specific soil, the soil properties being indicated below. The referenced crops and weeds are planted by hand in each pot. […] The experiments include six treatments each replicated three times on each crop/weed species. At a specific time after emergence each crop and weed species was treated with ipfencarbazone plus a non-ionic surfactant (NIS). In the present Example, the surfactant employed was ENERGIC™ (non-ionic surfactant). The application timing is indicated in each of the Tables (1 or 2 leaf stage) below. Ipfencarbazone plus surfactant was diluted in water and applied at a rate equivalent to about 250 L/ha. Ipfencarbazone was applied using a track sprayer. After treatment, the pots were randomized in a greenhouse. At each assessment (indicated by “days after treatment” or DAT) the height of each plant was measured. The letters next to each mean indicate the level of statistical significance.
Replications: 3, Untreated treatments: 1, Design: Randomized Complete Block (RCB), Treatment units: Treated ‘Plot’ experimental unit size, Dry Form. Unit: %, Treated ‘Plot’ experimental unit size Width: 1 meter, Treated ‘Plot’ experimental unit size Length: 1.4 meters, Application volume: 250 L/ha, Mix size: 0.15 liters, […]

[1] = Soft wheat BRS327, 15 DA-A, 62.5 g ai/ha + Energic NIS 0.2 % v/v
[2] = Soft wheat BRS327, 15 DA-A, 250 g ai/ha + Energic NIS 0.2 % v/v
[3] = Soft wheat BRS327, 15 DA-A, 1000 g ai/ha + Energic NIS 0.2 % v/v
[4] = Soft wheat BRS327, 28 DA-A, 62.5 g ai/ha + Energic NIS 0.2 % v/v
[5] = Soft wheat BRS327, 28 DA-A, 125 g ai/ha + Energic NIS 0.2 % v/v
[6] = Soft wheat BRS327, 28 DA-A, 250 g ai/ha + Energic NIS 0.2 % v/v
[7] = Soft wheat Iguaçú, 15 DA-A, 62.5 g ai/ha + Energic NIS 0.2 % v/v
[8] = Soft wheat Iguaçú, 15 DA-A, 250 g ai/ha + Energic NIS 0.2 % v/v
[9] = Soft wheat Iguaçú, 15 DA-A, 500 g ai/ha + Energic NIS 0.2 % v/v
[10] = Soft wheat Iguaçú, 15 DA-A, 1000 g ai/ha + Energic NIS 0.2 % v/v
[11] = Soft wheat Iguaçú, 28 DA-A, 62.5 g ai/ha + Energic NIS 0.2 % v/v
[12] = Soft wheat Iguaçú, 28 DA-A, 125 g ai/ha + Energic NIS 0.2 % v/v
[13] = Soft wheat Iguaçú, 28 DA-A, 250 g ai/ha + Energic NIS 0.2 % v/v
[14] = Soft wheat Iguaçú, 28 DA-A, 500 g ai/ha + Energic NIS 0.2 % v/v
[15] = Soft wheat Itaipú, 15 DA-A, 125 g ai/ha + Energic NIS 0.2 % v/v
[16] = Soft wheat Itaipú, 15 DA-A, 250 g ai/ha + Energic NIS 0.2 % v/v
[17] = Soft wheat Itaipú, 15 DA-A, 1000 g ai/ha + Energic NIS 0.2 % v/v
[18] = Soft wheat Itaipú, 28 DA-A, 125 g ai/ha + Energic NIS 0.2 % v/v
[19] = Soft wheat Itaipú, 28 DA-A, 250 g ai/ha + Energic NIS 0.2 % v/v

CC(C)N(C(=O)n1cnn(-c2ccc(Cl)cc2Cl)c1=O)c1ccc(F)cc1F [ARY-0572-001, ipfencarbazone]
Plant HEIGHT, Mean [1]: 27.2 cm | Plant HEIGHT, single plots [1]: 25.0 cm and 30.8 cm and 25.7 cm | Plant HEIGHT, Mean (Soft wheat BRS327, 15 DA-A, 125 g ai/ha + Energic NIS 0.2 % v/v): 27.6 cm | Plant HEIGHT, Mean [2]: 32.0 cm | Plant HEIGHT, single plots [2]: 31.0 cm and 32.3 cm and 32.7 cm | Plant HEIGHT, Mean (Soft wheat BRS327, 15 DA-A, 500 g ai/ha + Energic NIS 0.2 % v/v): 24.4 cm | Plant HEIGHT, Mean [3]: 17.3 cm | Plant HEIGHT, single plots [3]: 23.3 cm and 11.7 cm and 17.0 cm | Plant HEIGHT, Mean [4]: 33.0 cm | Plant HEIGHT, single plots [4]: 27.7 cm and 43.3 cm and 28.0 cm | Plant HEIGHT, Mean [5]: 35.0 cm | Plant HEIGHT, single plots [5]: 49.0 cm and 24.7 cm and 31.3 cm | Plant HEIGHT, Mean [6]: 45.6 cm | Plant HEIGHT, single plots [6]: 45.7 cm and 46.0 cm and 45.0 cm | Plant HEIGHT, Mean (Soft wheat BRS327, 28 DA-A, 500 g ai/ha + Energic NIS 0.2 % v/v): 31.6 cm | Plant HEIGHT, Mean (Soft wheat BRS327, 28 DA-A, 1000 g ai/ha + Energic NIS 0.2 % v/v): 28.2 cm | Plant HEIGHT, Mean [7]: 24.6 cm | Plant HEIGHT, single plots [7]: 20.2 cm and 28.0 cm and 25.7 cm | Plant HEIGHT, Mean (Soft wheat Iguaçú, 15 DA-A, 125 g ai/ha + Energic NIS 0.2 % v/v): 26.1 cm | Plant HEIGHT, Mean [8]: 29.9 cm | Plant HEIGHT, single plots [8]: 28.3 cm and 30.7 cm and 30.8 cm | Plant HEIGHT, Mean [9]: 23.8 cm | Plant HEIGHT, single plots [9]: 30.3 cm and 18.7 cm and 22.3 cm | Plant HEIGHT, Mean [10]: 16.3 cm | Plant HEIGHT, single plots [10]: 22.3 cm and 14.0 cm and 12.7 cm | Plant HEIGHT, Mean [11]: 29.2 cm | Plant HEIGHT, single plots [11]: 24.0 cm and 36.3 cm and 27.3 cm | Plant HEIGHT, Mean [12]: 30.1 cm | Plant HEIGHT, single plots [12]: 39.7 cm and 20.7 cm and 30.0 cm | Plant HEIGHT, Mean [13]: 43.3 cm | Plant HEIGHT, single plots [13]: 39.7 cm and 50.3 cm and 40.0 cm | Plant HEIGHT, Mean [14]: 36.8 cm | Plant HEIGHT, single plots [14]: 47.0 cm and 27.7 cm and 35.7 cm | Plant HEIGHT, Mean (Soft wheat Iguaçú, 28 DA-A, 1000 g ai/ha + Energic NIS 0.2 % v/v): 18.7 cm | Plant HEIGHT, Mean (Soft wheat Itaipú, 15 DA-A, 62.5 g ai/ha + Energic NIS 0.2 % v/v): 23.8 cm | Plant HEIGHT, Mean [15]: 25.5 cm | Plant HEIGHT, single plots [15]: 33.3 cm and 19.8 cm and 23.3 cm | Plant HEIGHT, Mean [16]: 31.4 cm | Plant HEIGHT, single plots [16]: 30.7 cm and 31.3 cm and 32.3 cm | Plant HEIGHT, Mean (Soft wheat Itaipú, 15 DA-A, 500 g ai/ha + Energic NIS 0.2 % v/v): 22.2 cm | Plant HEIGHT, Mean [17]: 15.7 cm | Plant HEIGHT, single plots [17]: 22.0 cm and 13.0 cm and 12.0 cm | Plant HEIGHT, Mean (Soft wheat Itaipú, 28 DA-A, 62.5 g ai/ha + Energic NIS 0.2 % v/v): 37.1 cm | Plant HEIGHT, Mean [18]: 32.3 cm | Plant HEIGHT, single plots [18]: 45.0 cm and 23.3 cm and 28.7 cm | Plant HEIGHT, Mean [19]: 47.8 cm | Plant HEIGHT, single plots [19]: 45.0 cm and 46.7 cm and 51.7 cm | Plant HEIGHT, Mean (Soft wheat Itaipú, 28 DA-A, 500 g ai/ha + Energic NIS 0.2 % v/v): 24.0 cm | Plant HEIGHT, Mean (Soft wheat Itaipú, 28 DA-A, 1000 g ai/ha + Energic NIS 0.2 % v/v): 18.4 cm | HEIGHT, percent of untreated check (APoC) (62.5 g ai/ha, 15 DA-A): (145.5%) | HEIGHT, treatment mean (62.5 g ai/ha, 15 DA-A): 27.2a cm | HEIGHT, percent of untreated check (APoC) (62.5 g ai/ha, 28 DA-A): (147.8%) | HEIGHT, treatment mean (62.5 g ai/ha, 28 DA-A): 33.0 a cm | HEIGHT, percent of untreated check (APoC) (125 g ai/ha, 15 DA-A): (147.6%)
